Where a name gives a salt, the structure may show the parent alone.

The term ED50 denotes the dose that gives a 50% effect, or the effect in half of the subjects. As usually defined, the melting point is the temperature, or range, at which the solid turns liquid.

For the first data set, the system named is DOPAC (3,4-dihydroxyphenylacetic acid) in the rat striatum. The data set can be described thus: Increase of DOPAC in the rat striatum (in vivo neurochemistry). The settings on record: Rattus norvegicus, sc, read-out: ED50 DOPAC. From the text:
After the behavioural activity sessions, the rats were decapitated and their brains rapidly taken out and put on an ice-cold petri-dish. The limbic forebrain, the striatum, the frontal cortex and the remaining hemispheral parts of each rat were dissected and frozen. Each brain part was subsequently analyzed with respect to its content of monoamines and their metabolites.
The monoamine transmitter substances (NA (noradrenaline), DA (dopamine), 5-HT (serotonin)) as well as their amine (NM (normethanephrine), 3-MT (3-methoxytyramine)) and acid (DOPAC (3,4-dihydroxylphenylacetic acid), 5-HIAA (5-hydroxyindoleacetic acid), HVA (homovamllic acid)) metabolites are quantified in brain tissue homogenates by HPLC separations and electrochemical detection
The analytical method is based on two chromatographic separations dedicated for amines or acids. Two chromatographic systems share a common auto injector with a 10-port valve and two sample loops for simultaneous injection on the two systems. Both systems are equipped with a reverse phase column (Luna C18(2), dp 3 μM, 50*2 mm i.d., Phenomenex) and electrochemical detection is accomplished at two potentials on glassy carbon electrodes (MF-1000, Bioanalytical Systems, Inc.). The column effluent is passed via a T-connection to the detection cell or to a waste outlet. This is accomplished by two solenoid valves, which block either the waste or detector outlet. By preventing the chromatographic front from reaching the detector, better detection conditions are achieved. […] Detection potentials relative to Ag/AgCl reference are 0.45 and 0.60V. […] Detection potentials relative to Ag/AgCl reference are 0.45 and 0.65V.
ED50 values for the increase of DOPAC in striatum are calculated by curve fitting.
Regarding `CCCN1CCC(c2cccc(C(F)(F)F)c2)CC1` [reference compound], the ED50 is 84 µmol/kg.

The same data set, now with this note: sc; increase of DOPAC in rat striatum after systemic administration (s.c.); maximal effects limited to 350-400% of control; range covers 95% of fits; read-out: ED50 DOPAC.
Take `CCN1CCC(c2cccc(C(=O)C(F)(F)F)c2F)CC1`: the median effective dose (ED50) came to 12 µmol/kg. Turning to `COCCN1CCC(c2cccc(S(C)(=O)=O)c2F)CC1` [drawing 12], the ED50 is 84 µmol/kg. Take `CCN1CCC(c2cccc(S(C)(=O)=O)c2F)CC1` [drawing 10]: the ED50 stood at 68 µmol/kg. Same read-out and setting: under `COCCN1CCC(c2cccc(S(C)(=O)=O)c2)CC1` [reference compound] stands 208 µmol/kg.

Tested on in another data set: not given
Assay: not given
Settings: not given
As to `CCN1CCC(c2cccc(C(C)=O)c2F)CC1`, the melting point fell in the range of 199 to 202 °C. Same read-out and setting: under `CCCN1CCC(c2cccc(S(C)(=O)=O)c2N)CC1` (as salt: hydrochloric acid salt) [Example 6, 2-(METHYLSULFONYL)-6-(1-PROPYLPIPERIDIN-4-YL)ANILINE] stands 232 to 233 °C; under `CCCN1CCC(c2cccc(S(C)(=O)=O)c2Cl)CC1` (as salt: hydrochloric acid salt) [Example 3, 4-[2-CHLORO-3-(METHYLSULFONYL)PHENYL]-1-PROPYLPIPERIDINE], 250 to 252 °C; under `CCN1CCC(c2cccc(OS(=O)(=O)C(F)(F)F)c2F)CC1` (as salt: methanesulfonate) [Example 34, 3-(1-ETHYLPIPERIDIN-4-YL)-2-FLUOROPHENYL TRIFLUOROMETHANESULFONATE], 158 to 159 °C. For the molecule `CS(=O)(=O)c1cccc(C2CCN(CCC3OCCO3)CC2)c1F` (as salt: hydrochloric acid salt) [Example 26, 1-[2-(1,3-DIOXOLAN-2-YL)ETHYL]-4-[2-FLUORO-3-(METHYLSULFONYL)PHENYL]-PIPERIDINE], the melting point was in the range of 224 to 225 °C. Same read-out and setting: under `CCN1CCC(c2cccc(S(=O)(=O)N(C)C)c2F)CC1` (as salt: fumaric acid salt) stands 151 to 152 °C; under `C=CCN1CCC(c2cccc(S(C)(=O)=O)c2F)CC1` (as salt: hydrochloric acid salt) [Example 40, 1-ALLYL-4-[2-FLUORO-3-(METHYLSULFONYL)PHENYL]PIPERIDINE], 259 to 261 °C; under `CCCN1CCC(c2cccc(C(F)(F)F)c2C#N)CC1` (as salt: hydrochloric acid salt) [Example 7, 2-(1-PROPYLPIPERIDIN-4-YL)-6-(TRIFLUOROMETHYL)BENZONITRILE], 272 to 274 °C.

Turning to `CCCN1CCC(c2cccc(S(C)(=O)=O)c2C)CC1` (as salt: hydrochloric acid salt) [Example 4, 4-[2-METHYL-3-(METHYLSULFONYL)PHENYL]-1-PROPYLPIPERIDINE], the melting point was 233 to 235 °C.

Regarding `CCCN1CCC(c2cccc(C(F)(F)F)c2F)CC1` (as salt: hydrochloric acid salt) [Example 71, 4-[2-FLUORO-3-(TRIFLUOROMETHYL)PHENYL]-1-PROPYLPIPERIDINE], the melting point was in the range of 258 to 260 °C.

In turn, `COCCN1CCN(c2cccc(C(F)(F)F)c2F)CC1` (as salt: hydrochloric acid salt) [Example 10, 1-[2-FLUORO-3-(TRIFLUOROMETHYL)PHENYL]-4-(2-METHOXYETHYL)PIPERAZINE] yielded a melting point of 170 to 171 °C. Take `C=CCN1CCC(c2cccc(C(F)(F)F)c2F)CC1` (as salt: hydrochloric acid salt) [Example 70, 1-ALLYL-4-[2-FLUORO-3-(TRIFLUOROMETHYL)PHENYL]PIPERIDINE]: the melting point fell in the range of 224 to 226 °C.

Take `CCCN1CCN(c2cccc(C#N)c2C(F)(F)F)CC1` (as salt: hydrochloric acid salt): the melting point is 234 to 236 °C. With `CCCN1CCC(c2cccc(S(C)(=O)=O)c2F)CC1` (as salt: hydrochloric acid salt) [Example 1, 4-[2-FLUORO-3-(METHYLSULFONYL)PHENYL]-1-PROPYLPIPERIDINE], the melting point was in the range of 255 to 257 °C. Same read-out and setting: under `COCCN1CCC(c2cccc(C(F)(F)F)c2F)CC1` (as salt: hydrochloric acid salt) [Example 47, 4-[2-FLUORO-3-(TRIFLUOROMETHYL)PHENYL]-1-(2-METHOXYETHYL)PIPERIDINE] stands 180 to 181 °C. On the same count and under the same terms, then `CCCN1CCC(c2cccc(C(F)(F)F)c2OC)CC1` (as salt: hydrochloric acid salt) [Example 8, 4-[2-METHOXY-3-(TRIFLUOROMETHYL)PHENYL]-1-PROPYLPIPERIDINE], with 235.5 °C; and `CCN1CCC(c2cccc(S(C)(=O)=O)c2F)CC1` (as salt: maleic acid salt) [Example 2, 1-ETHYL-4-[2-FLUORO-3-(METHYLSULFONYL)PHENYL]-PIPERIDINE], with 112 to 113 °C. On the same count and under the same terms, then `CCCN1CCC(c2cccc(OC(F)(F)F)c2O)CC1` (as salt: hydrochloric acid salt) [Example 30, 2-(1-PROPYLPIPERIDIN-4-YL)-6-(TRIFLUOROMETHOXY)PHENOL], with 203 to 205 °C; and `CCN1CCC(c2cccc(S(=O)(=O)C(F)(F)F)c2F)CC1` (as salt: hydrochloric acid salt), with 189 to 191 °C; and `OCCN1CCC(c2cccc(C(F)(F)F)c2F)CC1` (as salt: hydrochloric acid salt) [Example 27, 2-{4-[2-FLUORO-3-(TRIFLUOROMETHYL)PHENYL]PIPERIDIN-1-YL}ETHANOL], with 224 to 226 °C. With `CCCN1CCN(c2cccc(C(F)(F)F)c2F)CC1` (as salt: hydrochloric acid salt) [Example 9, 1-[2-FLUORO-3-(TRIFLUOROMETHYL)PHENYL]-4-PROPYLPIPERAZINE], the melting point lay within 180 to 181 °C. Same read-out and setting: then `CCCN1CCC(c2cccc(C(F)(F)F)c2O)CC1` (as salt: hydrochloric acid salt) [Example 29, 2-(1-PROPYLPIPERIDIN-4-YL)-6-(TRIFLUOROMETHYL)PHENOL], with 218 to 220 °C; and `CCCN1CCN(c2cccc(Cl)c2Cl)CC1` (as salt: hydrochloric acid salt) [Example 11, 1-(2,3-DICHLOROPHENYL)-4-PROPYLPIPERAZINE], with 220 to 221 °C; and `CCN1CCC(c2cccc(S(C)(=O)=O)c2Cl)CC1` (as salt: hydrochloride) [Example 28, 4-[2-CHLORO-3-(METHYLSULFONYL)PHENYL]-1-ETHYLPIPERIDINE], with 264 to 265 °C. The same measure, in the same setting: then `CCCN1CCC(c2cccc(C#N)c2C(F)(F)F)CC1` (as salt: hydrochloric acid salt) [Example 13, 3-(1-PROPYLPIPERIDIN-4-YL)-2-(TRIFLUORO-METHYL)BENZONITRILE], with 266 to 269 °C; and `CCN1CCN(c2cccc(S(C)(=O)=O)c2F)CC1` (as salt: hydrochloric acid salt), with 214 to 216 °C; and `CCCN1CCN(c2cccc(S(C)(=O)=O)c2F)CC1` (as salt: hydrochloric acid salt), with 241 to 243 °C. On to `OCCCN1CCC(c2cccc(C(F)(F)F)c2F)CC1` (as salt: hydrochloric acid salt) [Example 32, 3-{4-[2-FLUORO-3-(TRIFLUOROMETHYL)PHENYL]PIPERIDIN-1-YL}PROPAN-1-OL], for which the melting point was 259 to 261 °C.

The molecule `CCN1CCC(c2cccc(C(=O)C(F)(F)F)c2F)CC1` (as salt: fumaric acid salt) gave a melting point of 109 to 110 °C.

The next data set relates to drug-naive rats. Briefly: Locomotor activity in drug-naive rats. The settings on record: drug-naive habituated rats, 11 μmol/kg, recorded between 30 and 60 minutes, ± SEM.
Consider `CCN1CCC(c2cccc(S(C)(=O)=O)c2F)CC1` [drawing 36], for which the Locomotor activity came to 2254 ± 804 counts/30 min. The same measure, in the same setting: under `COCCN1CCC(c2cccc(S(C)(=O)=O)c2F)CC1` [drawing 38] stands 1836 ± 504 (P = 0.064) counts/30 min.

Still in this data set, the particulars now being: drug-naive habituated rats, 33 μmol/kg, recorded between 30 and 60 minutes, ± SEM.
Turning to `CCN1CCC(c2cccc(S(C)(=O)=O)c2F)CC1` [drawing 36], the Locomotor activity is given as 2499 ± 766 (P = 0.1) counts/30 min. For `COCCN1CCC(c2cccc(S(C)(=O)=O)c2F)CC1` [drawing 38], the Locomotor activity is reported as 1258 ± 623 counts/30 min.

The same data set, now with this note: drug-naive habituated rats, 100 μmol/kg, recorded between 30 and 60 minutes, ± SEM.
Take `CCN1CCC(c2cccc(S(C)(=O)=O)c2F)CC1` [drawing 36]: the Locomotor activity was 2418 ± 703 (P = 0.1) counts/30 min.

Molecule `COCCN1CCC(c2cccc(S(C)(=O)=O)c2F)CC1` [drawing 38] registered a Locomotor activity of 1085 ± 211 counts/30 min.

The data set is the same for the next values; noted with them: drug-naive rats, 11 μmol/kg, recorded for 60 minutes, ± SEM.
Turning to `CCN1CCC(c2cccc(S(C)(=O)=O)c2F)CC1` [drawing 29], the Locomotor activity was 13113 ± 1795 counts/60 min.

Still in this data set, the particulars now being: drug-naive rats, 33 μmol/kg, recorded for 60 minutes, ± SEM.
`CCN1CCC(c2cccc(S(C)(=O)=O)c2F)CC1` [drawing 29] gave a Locomotor activity of 12744 ± 1291 counts/60 min.

The same data set, now with this note: drug-naive rats, 100 μmol/kg, recorded for 60 minutes, ± SEM.
`CCN1CCC(c2cccc(S(C)(=O)=O)c2F)CC1` [drawing 29] came in with a Locomotor activity of 12530 ± 2577 counts/60 min.
